ChEMBL document CHEMBL6153094, “Rationally designed highly amphipathic antimicrobial peptides demonstrating superior bacterial selectivity relative to the corresponding α-helix peptide” (Eur J Med Chem, 2025)
The source made the active and inactive calls. The calls are words filed in the database; no cut-off is given here. Where a SMILES comes first, the peptide text is derived from it. Bridges are numbered along the chain shown (N, C = ends). [ ]: non-standard residue; d: D form. The star is where a group is joined. X1 = CC[C@H](C)CCCCC(=O)*; dDab = NCC[C@@H](N)C(=O)O; Dab = NCC[C@H](N)C(=O)O

Assays:
Pseudomonas aeruginosa [1] = assay: Bactericidal activity against Pseudomonas aeruginosa ATCC 27853 assessed as bacterial eradication at 4 times of MIC measured within 30 mins by time-kill kinetics assay; type: functional, organism-based
Pseudomonas aeruginosa [2] = assay: Antibacterial activity against Pseudomonas aeruginosa ATCC 27853 incubated for 18 hrs in presence of 10% serum by broth microdilution method; type: functional, organism-based
Staphylococcus aureus [3] = assay: Bactericidal activity against Staphylococcus aureus ATCC 25923 assessed as bacterial eradication at 2 times of MIC measured after 120 mins by time-kill kinetics assay; type: functional, organism-based
Staphylococcus aureus [4] = assay: Antibacterial activity against methicillin-resistant Staphylococcus aureus ATCC 33591 infected in male Balb/c mouse model of full thickness skin wound assessed as reduction in bacteria in skin wound at 1 mg/ml pre-infected with bacteria for 1 hrs followed by compound administration at 1,24,48 and 72 hrs post infection and measured after 10 days by photographic analysis; type: functional, organism-based; settings: time 10.0 day
Klebsiella pneumoniae [5] = assay: Antibacterial activity against Klebsiella pneumoniae ATCC 700603 infected in male Balb/c mouse model of pneumonia assessed as decrease in bacterial load in lung at 5 mg/kg, ip administered at 4 and 12 hrs post-infected and measured after 24 hrs by agar plate method; type: functional, organism-based; settings: time 20.0 hrs
Staphylococcus aureus [6] = assay: Antibacterial activity against Staphylococcus aureus ATCC 25923 incubated for 18 hrs in presence of 5% serum by broth microdilution method; type: functional, organism-based
Pseudomonas aeruginosa [7] = assay: Bactericidal activity against Pseudomonas aeruginosa ATCC 27853 assessed as bacterial killing at 1 to 4 times of MIC by time-kill kinetics assay; type: functional, organism-based; settings: time <= 360.0 min
DNA [8] = assay: Binding affinity to Pseudomonas aeruginosa ATCC 27853 DNA at 1 to 8 times of MIC measured after 30 mins by agarose gel electrophoresis; type: nucleic-acid assay
Staphylococcus aureus [9] = assay: Induction of morphological changes in Staphylococcus aureus ATCC 25923 assessed as blister formation at 2 times of MIC incubated for 30 to 120 mins by SEM analysis; type: functional, organism-based; settings: time 30-120 min
Pseudomonas aeruginosa [10] = assay: Bactericidal activity against Pseudomonas aeruginosa ATCC 27853 assessed as bacterial killing measured upto 360 mins by time-kill kinetics assay; type: functional, organism-based
Staphylococcus aureus [11] = assay: Antibacterial activity against Staphylococcus aureus ATCC 25923 incubated for 18 hrs in presence of 2.5% serum by broth microdilution method; type: functional, organism-based
Pseudomonas aeruginosa [12] = assay: Induction of morphological changes in Pseudomonas aeruginosa ATCC 27853 assessed as membrane disruption at 2 times of MIC incubated for 30 to 120 mins by SEM analysis; type: functional, organism-based; settings: time 30-120 min
Staphylococcus aureus [13] = assay: Bactericidal activity against Staphylococcus aureus ATCC 25923 assessed as bacterial eradication at 4 times of MIC measured after 120 mins by time-kill kinetics assay; type: functional, organism-based
Staphylococcus aureus [14] = assay: Induction of morphological changes in Staphylococcus aureus ATCC 25923 assessed as cell adhesion at 2 times of MIC incubated for 30 to 120 mins by SEM analysis; type: functional, organism-based; settings: time 30-120 min
Cell membrane [15] = assay: Induction of inner membrane permeabilization in Escherichia coli ML-35 ATCC 43837 assessed as increase in […] measured for 135 mins by ONPG based analysis; type: subcellular
Cell membrane [16] = assay: Disruption of membrane integrity in Pseudomonas aeruginosa ATCC 27853 at 2 times of MIC incubated for 30 to 120 mins by SEM analysis; type: subcellular; settings: time 30-120 min
Cell membrane [17] = assay: Disruption of outer membrane integrity in Pseudomonas aeruginosa ATCC 27853 assessed as increase in fluorescence intensity at 2 times of MIC measured for 12 mins by NPN uptake assay; type: subcellular
Staphylococcus aureus [18] = assay: Bactericidal activity against Staphylococcus aureus ATCC 25923 assessed as bacterial killing at 1 to 4 times of MIC by time-kill kinetics assay; type: functional, organism-based; settings: time <= 360.0 min
Pseudomonas aeruginosa [19] = assay: Antibiofilm activity in Pseudomonas aeruginosa ATCC 27853 assessed as inhibition of biofilm formation at 1/2 times of MIC incubated for 24 hrs by crystal violet staining based analysis; type: functional, organism-based
Pseudomonas aeruginosa [20] = assay: Induction of morphological changes in Pseudomonas aeruginosa ATCC 27853 assessed as cellular fragmentation at 2 times of MIC incubated for 30 to 120 mins by SEM analysis; type: functional, organism-based; settings: time 30-120 min
Pseudomonas aeruginosa [21] = assay: Induction of morphological changes in Pseudomonas aeruginosa ATCC 27853 assessed as content leakage at 2 times of MIC incubated for 30 to 120 mins by SEM analysis; type: functional, organism-based; settings: time 30-120 min
Pseudomonas aeruginosa [22] = assay: Induction of morphological changes in Pseudomonas aeruginosa ATCC 27853 assessed as cell adhesion at 2 times of MIC incubated for 30 to 120 mins by SEM analysis; type: functional, organism-based; settings: time 30-120 min
Staphylococcus aureus [23] = assay: Antibacterial activity against methicillin-resistant Staphylococcus aureus ATCC 33591 infected in male Balb/c mouse model of full thickness skin wound assessed as reduction in bacterial load in skin at 1 mg/ml pre-infected with bacteria for 1 hrs followed by compound administration at 1,24,48 and 72 hrs post infection and measured 60 hrs post infection by agar plate method; type: functional, organism-based; settings: time 59.0 hrs
Pseudomonas aeruginosa [24] = assay: Induction of morphological changes in Pseudomonas aeruginosa ATCC 27853 assessed as blister formation at 2 times of MIC incubated for 30 to 120 mins by SEM analysis; type: functional, organism-based; settings: time 30-120 min
Staphylococcus aureus [25] = assay: Bactericidal activity against Staphylococcus aureus ATCC 25923 assessed as bacterial eradication at 1 times of MIC measured after 360 mins by time-kill kinetics assay; type: functional, organism-based
Staphylococcus aureus [26] = assay: Induction of morphological changes in Staphylococcus aureus ATCC 25923 assessed as membrane disruption at 2 times of MIC incubated for 30 to 120 mins by SEM analysis; type: functional, organism-based; settings: time 30-120 min
Pseudomonas aeruginosa [27] = assay: Antibacterial activity against Pseudomonas aeruginosa ATCC 27853 assessed as inhibition of bacterial growth compound pretreated with 32 microg/ml of LPS for 1 hrs followed by bacterial addition and measured after 18 hrs by absorbance based assay; type: functional, organism-based
Klebsiella pneumoniae [28] = assay: Antibacterial activity against Klebsiella pneumoniae ATCC 700603 infected in male Balb/c mouse model of pneumonia assessed as decrease in decrease in IL-6 level in lung at 5 mg/kg, ip administered at 4 and 12 hrs post-infected and measured after 24 hrs by ELISA; type: functional, organism-based; settings: time 20.0 hrs
Pseudomonas aeruginosa [29] = assay: Bactericidal activity against Pseudomonas aeruginosa ATCC 27853 assessed as bacterial eradication at 1 times of MIC measured within 30 mins by time-kill kinetics assay; type: functional, organism-based
Pseudomonas aeruginosa [30] = assay: Antibacterial activity against Pseudomonas aeruginosa ATCC 27853 incubated for 18 hrs in presence of 5% serum by broth microdilution method; type: functional, organism-based
Cell membrane [31] = assay: Disruption of outer membrane integrity in Pseudomonas aeruginosa ATCC 27853 assessed as increase in fluorescence intensity at 1 times of MIC measured for 12 mins by NPN uptake assay; type: subcellular
Staphylococcus aureus [32] = assay: Antibacterial activity against Staphylococcus aureus ATCC 25923 incubated for 18 hrs in presence of 10% serum by broth microdilution method; type: functional, organism-based
Cell membrane [33] = assay: Disruption of membrane integrity in Staphylococcus aureus ATCC 25923 at 2 times of MIC incubated for 30 to 120 mins by SEM analysis; type: subcellular; settings: time 30-120 min
Pseudomonas aeruginosa [34] = assay: Bactericidal activity against Pseudomonas aeruginosa ATCC 27853 assessed as bacterial eradication at 2 times of MIC measured within 30 mins by time-kill kinetics assay; type: functional, organism-based
Klebsiella pneumoniae [35] = assay: Antibacterial activity against Klebsiella pneumoniae ATCC 700603 infected in male Balb/c mouse model of pneumonia assessed as decrease in decrease in IL-1beta level in lung at 5 mg/kg, ip administered at 4 and 12 hrs post-infected and measured after 24 hrs by ELISA; type: functional, organism-based; settings: time 20.0 hrs
DNA [36] = assay: Binding affinity to Staphylococcus aureus ATCC 25923 DNA at 1 to 8 times of MIC measured after 30 mins by agarose gel electrophoresis; type: nucleic-acid assay
Klebsiella pneumoniae [37] = assay: Antibacterial activity against Klebsiella pneumoniae ATCC 700603 infected in male Balb/c mouse model of pneumonia assessed as decrease in decrease in TNF-alpha level in lung at 5 mg/kg, ip administered at 4 and 12 hrs post-infected and measured after 24 hrs by ELISA; type: functional, organism-based; settings: time 20.0 hrs
Pseudomonas aeruginosa [38] = assay: Antibacterial activity against Pseudomonas aeruginosa ATCC 27853 incubated for 18 hrs in presence of 2.5% serum by broth microdilution method; type: functional, organism-based
Cell membrane [39] = assay: Disruption of outer membrane integrity in Pseudomonas aeruginosa ATCC 27853 assessed as increase in fluorescence intensity at 4 times of MIC measured for 12 mins by NPN uptake assay; type: subcellular
Staphylococcus aureus [40] = assay: Induction of morphological changes in Staphylococcus aureus ATCC 25923 assessed as content leakage at 2 times of MIC incubated for 30 to 120 mins by SEM analysis; type: functional, organism-based; settings: time 30-120 min
Staphylococcus aureus [41] = assay: Induction of morphological changes in Staphylococcus aureus ATCC 25923 assessed as cellular fragmentation at 2 times of MIC incubated for 30 to 120 mins by SEM analysis; type: functional, organism-based; settings: time 30-120 min
Staphylococcus aureus [42] = assay: Bactericidal activity against Staphylococcus aureus ATCC 25923 assessed as bacterial killing measured upto 360 mins by time-kill kinetics assay; type: functional, organism-based

In the case of `CC(C)CCCCC(=O)N[C@@H](CCN)C(=O)N[C@H](C(=O)N[C@@H](CCN)C(=O)N[C@H]1CCNC(=O)[C@H]([C@@H](C)O)NC(=O)[C@H](CCN)NC(=O)[C@H](CCN)NC(=O)[C@H](CC(C)C)NC(=O)[C@@H](Cc2ccccc2)NC(=O)[C@@H](CCN)NC1=O)[C@@H](C)O.CC[C@H](C)CCCCC(=O)N[C@@H](CCN)C(=O)N[C@H](C(=O)N[C@@H](CCN)C(=O)N[C@H]1CCNC(=O)[C@H]([C@@H](C)O)NC(=O)[C@H](CCN)NC(=O)[C@H](CCN)NC(=O)[C@H](CC(C)C)NC(=O)[C@@H](Cc2ccccc2)NC(=O)[C@@H](CCN)NC1=O)[C@@H](C)O` (X1-[Dab]T[Dab][Dab][dDab][dF]L[Dab][Dab]T; lactam 4-C), the Activity (Pseudomonas aeruginosa [1]) is reported as “Active”, the Activity (Pseudomonas aeruginosa [2]) is reported as “Active” and the Activity (Staphylococcus aureus [3]) is reported as “Active”. For the same compound, the Activity (Staphylococcus aureus [4]) was “Active; Obvious Facilitation Of Wound Healing Not Observed”, the Activity (Klebsiella pneumoniae [5]) was “Active” and the Activity (Staphylococcus aureus [6]) was “Active”. The Activity (Pseudomonas aeruginosa [7]) was “Time-dependent-effect”, the Activity (DNA [8]) was “Not active; Weak Binding Affinity Observed” and the Activity (Staphylococcus aureus [9]) was “Active”. For the same compound, the Activity (Pseudomonas aeruginosa [10]) was “Dose-dependent-effect”, the Activity (Staphylococcus aureus [11]) was “Active” and the Activity (Pseudomonas aeruginosa [12]) was “Active”. The Activity (Staphylococcus aureus [13]) was “Active”, the Activity (Staphylococcus aureus [14]) was “Active” and the Activity (Cell membrane [15]) was “Active; Lower Concentration Of Compound Is Sufficient To Disrupt Inner Membrane”. For the same compound, the Activity (Cell membrane [16]) was “Active; Pronounced Detrimental Effect Observed”, the Activity (Cell membrane [17]) was “Active” and the Activity (Staphylococcus aureus [18]) was “Time-dependent-effect”. For the same compound, the Activity (Pseudomonas aeruginosa [19]) was “inactive”, the Activity (Pseudomonas aeruginosa [20]) was “Active” and the Activity (Pseudomonas aeruginosa [21]) was “Active”. The Activity (Pseudomonas aeruginosa [22]) was “Active”, the Activity (Staphylococcus aureus [23]) was “Active” and the Activity (Pseudomonas aeruginosa [24]) was “Active”. The Activity (Staphylococcus aureus [25]) was “Active”, the Activity (Staphylococcus aureus [26]) was “Active” and the Activity (Pseudomonas aeruginosa [27]) was “Not active; Compound Binds To Lps To Exert Its Activity”. The Activity (Klebsiella pneumoniae [28]) was “inactive”, the Activity (Pseudomonas aeruginosa [29]) was “Active” and the Activity (Pseudomonas aeruginosa [30]) was “Active”. For the same compound, the Activity (Cell membrane [31]) was “Active”, the Activity (Staphylococcus aureus [32]) was “Active” and the Activity (Cell membrane [33]) was “Active”. The Activity (Pseudomonas aeruginosa [34]) was “Active”, the Activity (Klebsiella pneumoniae [35]) was “Active” and the Activity (DNA [36]) was “Not active; Weak Binding Affinity Observed”. The Activity (Klebsiella pneumoniae [37]) was “Active”, the Activity (Pseudomonas aeruginosa [38]) was “Active” and the Activity (Cell membrane [39]) was “Active; Maximum Permeability Effects Observed”. The Activity (Staphylococcus aureus [40]) was “Active”, the Activity (Staphylococcus aureus [41]) was “Active” and the Activity (Staphylococcus aureus [42]) was “Dose-dependent-effect”.
